Measured values: ChEMBL document CHEMBL1139392, “Synthesis and antibacterial activities of novel oxazolidinones having cyclic sulfonamide moieties” (2008)
Values after ≈ are worked out from the molar mass of the structure shown.

Key:
Format in all cases: functional
Haemophilus influenzae = test: Antibacterial activity against Haemophilus influenzae after 18 to 20 hrs by agar dilution method
Enterococcus [1] = test: Antibacterial activity against vancomycin-resistant Enterococcus 1 after 18 to 20 hrs by agar dilution method
Enterococcus faecium [2] = test: Antibacterial activity against vancomycin-resistant Enterococcus faecium 1 after 18 to 20 hrs by agar dilution method
Staphylococcus = test: Antibacterial activity against coagulase negative Staphylococcus after 18 to 20 hrs by agar dilution method
Enterococcus faecium [3] = test: Antibacterial activity against vancomycin-resistant Enterococcus faecium 2 after 18 to 20 hrs by agar dilution method
Streptococcus pneumoniae = test: Antibacterial activity against Streptococcus pneumoniae C402 after 18 to 20 hrs by agar dilution method
Streptococcus agalactiae = test: Antibacterial activity against Streptococcus agalactiae ATCC 2901 after 18 to 20 hrs by agar dilution method
Enterococcus [4] = test: Antibacterial activity against vancomycin-resistant Enterococcus 5 after 18 to 20 hrs by agar dilution method
Enterococcus [5] = test: Antibacterial activity against vancomycin-resistant Enterococcus 6 after 18 to 20 hrs by agar dilution method
Enterococcus faecium [6] = test: Antibacterial activity against Enterococcus faecium C803 after 18 to 20 hrs by agar dilution method
Enterococcus [7] = test: Antibacterial activity against vancomycin-resistant Enterococcus 2 after 18 to 20 hrs by agar dilution method
Streptococcus pyogenes = test: Antibacterial activity against Streptococcus pyogenes ATCC 8736 after 18 to 20 hrs by agar dilution method
Enterococcus [8] = test: Antibacterial activity against vancomycin-resistant Enterococcus 3 after 18 to 20 hrs by agar dilution method
Enterococcus [9] = test: Antibacterial activity against vancomycin-resistant Enterococcus 4 after 18 to 20 hrs by agar dilution method
Staphylococcus aureus [10] = test: Antibacterial activity against Staphylococcus aureus C463 after 18 to 20 hrs by agar dilution method
Staphylococcus aureus [11] = test: Antibacterial activity against methicillin-resistant Staphylococcus aureus 1 after 18 to 20 hrs by agar dilution method
Enterococcus faecalis = test: Antibacterial activity against Enterococcus faecalis C474 after 18 to 20 hrs by agar dilution method

| Structure (SMILES) | MIC (Haemophilus influenzae) [µg/mL] | MIC (Enterococcus [1]) [µg/mL] | MIC (Enterococcus faecium [2]) [µg/mL] | MIC (Staphylococcus) [µg/mL] | MIC (Enterococcus faecium [3]) [µg/mL] | MIC (Streptococcus pneumoniae) [µg/mL] | MIC (Streptococcus agalactiae) [µg/mL] | MIC (Enterococcus [4]) [µg/mL] | MIC (Enterococcus [5]) [µg/mL] | MIC (Enterococcus faecium [6]) [µg/mL] | MIC (Enterococcus [7]) [µg/mL] | MIC (Streptococcus pyogenes) [µg/mL] | MIC (Enterococcus [8]) [µg/mL] | MIC (Enterococcus [9]) [µg/mL] | MIC (Staphylococcus aureus [10]) [µg/mL] | MIC (Staphylococcus aureus [11]) [µg/mL] | MIC (Enterococcus faecalis) [µg/mL] |
| --- | --- | --- | --- | --- | --- | --- | --- | --- | --- | --- | --- | --- | --- | --- | --- | --- | --- |
| CC(=O)NC[C@H]1CN(c2ccc(N3CC(C)NS3(=O)=O)c(F)c2)C(=O)O1 (some centres not stated) | 6.25 (≈ 16.2 µM) | 6.25 (≈ 16.2 µM) | 6.25 (≈ 16.2 µM) | 12.5 (≈ 32.3 µM) | 6.25 (≈ 16.2 µM) | 3.12 (≈ 8.07 µM) | 3.12 (≈ 8.07 µM) | 12.5 (≈ 32.3 µM) | 12.5 (≈ 32.3 µM) | 3.12 (≈ 8.07 µM) | 12.5 (≈ 32.3 µM) | 1.56 (≈ 4.04 µM) | 6.25 (≈ 16.2 µM) | 6.25 (≈ 16.2 µM) | 12.5 (≈ 32.3 µM) | 12.5 (≈ 32.3 µM) | 6.25 (≈ 16.2 µM) |
| CC(=O)NC[C@H]1CN(c2ccc(N3CCOCC3)c(F)c2)C(=O)O1 [LINEZOLID] | 1.56 (≈ 4.62 µM) | 0.78 (≈ 2.31 µM) | 1.56 (≈ 4.62 µM) | 1.56 (≈ 4.62 µM) | 0.78 (≈ 2.31 µM) | 0.39 (≈ 1.16 µM) | 1.56 (≈ 4.62 µM) | 1.56 (≈ 4.62 µM) | 1.56 (≈ 4.62 µM) | 1.56 (≈ 4.62 µM) | 1.56 (≈ 4.62 µM) | 0.39 (≈ 1.16 µM) | 1.56 (≈ 4.62 µM) | 1.56 (≈ 4.62 µM) | 1.56 (≈ 4.62 µM) | 3.12 (≈ 9.25 µM) | 1.56 (≈ 4.62 µM) |
| CC(=O)NC[C@H]1CN(c2ccc(N3CCN(C(=O)OC(C)(C)C)S3(=O)=O)c(F)c2)C(=O)O1 | 6.25 (≈ 13.2 µM) | 25 (≈ 52.9 µM) | 12.5 (≈ 26.5 µM) | 12.5 (≈ 26.5 µM) | 12.5 (≈ 26.5 µM) | 25 (≈ 52.9 µM) | 6.25 (≈ 13.2 µM) | 12.5 (≈ 26.5 µM) | 12.5 (≈ 26.5 µM) | 25 (≈ 52.9 µM) | 25 (≈ 52.9 µM) | 6.25 (≈ 13.2 µM) | 6.25 (≈ 13.2 µM) | 6.25 (≈ 13.2 µM) | 12.5 (≈ 26.5 µM) | 12.5 (≈ 26.5 µM) | 12.5 (≈ 26.5 µM) |
| CC(=O)NC[C@H]1CN(c2ccc(N3CCCNS3(=O)=O)c(F)c2)C(=O)O1 | 1.56 (≈ 4.04 µM) | 3.12 (≈ 8.07 µM) | 3.12 (≈ 8.07 µM) | 1.56 (≈ 4.04 µM) | 1.56 (≈ 4.04 µM) | 0.78 (≈ 2.02 µM) | 1.56 (≈ 4.04 µM) | 3.12 (≈ 8.07 µM) | 3.12 (≈ 8.07 µM) | 1.56 (≈ 4.04 µM) | 1.56 (≈ 4.04 µM) | 1.56 (≈ 4.04 µM) | 0.78 (≈ 2.02 µM) | 3.12 (≈ 8.07 µM) | 3.12 (≈ 8.07 µM) | 1.56 (≈ 4.04 µM) | 1.56 (≈ 4.04 µM) |
| CC(=O)NC[C@H]1CN(c2ccc(N3CCCN(C)S3(=O)=O)c(F)c2)C(=O)O1 | 1.56 (≈ 3.9 µM) | 1.56 (≈ 3.9 µM) | 0.78 (≈ 1.95 µM) | 1.56 (≈ 3.9 µM) | 1.56 (≈ 3.9 µM) | 0.78 (≈ 1.95 µM) | 1.56 (≈ 3.9 µM) | 1.56 (≈ 3.9 µM) | 1.56 (≈ 3.9 µM) | 1.56 (≈ 3.9 µM) | 1.56 (≈ 3.9 µM) | 0.78 (≈ 1.95 µM) | 1.56 (≈ 3.9 µM) | 1.56 (≈ 3.9 µM) | 1.56 (≈ 3.9 µM) | 1.56 (≈ 3.9 µM) | 1.56 (≈ 3.9 µM) |
| CC(=O)NC[C@H]1CN(c2ccc(N3CC(C)(C)NS3(=O)=O)c(F)c2)C(=O)O1 | 25 (≈ 62.4 µM) | 25 (≈ 62.4 µM) | 12.5 (≈ 31.2 µM) | 12.5 (≈ 31.2 µM) | 12.5 (≈ 31.2 µM) | 12.5 (≈ 31.2 µM) | 12.5 (≈ 31.2 µM) | 12.5 (≈ 31.2 µM) | 12.5 (≈ 31.2 µM) | 25 (≈ 62.4 µM) | 12.5 (≈ 31.2 µM) | 6.25 (≈ 15.6 µM) | 6.25 (≈ 15.6 µM) | 12.5 (≈ 31.2 µM) | 12.5 (≈ 31.2 µM) | 12.5 (≈ 31.2 µM) | 12.5 (≈ 31.2 µM) |
| CC(=O)NC[C@H]1CN(c2ccc(N3CCN(Cc4ccccc4)S3(=O)=O)c(F)c2)C(=O)O1 | 3.12 (≈ 6.75 µM) | 6.25 (≈ 13.5 µM) | 6.25 (≈ 13.5 µM) | 6.25 (≈ 13.5 µM) | 1.56 (≈ 3.37 µM) | 6.25 (≈ 13.5 µM) | 6.25 (≈ 13.5 µM) | 6.25 (≈ 13.5 µM) | 6.25 (≈ 13.5 µM) | 6.25 (≈ 13.5 µM) | 6.25 (≈ 13.5 µM) | 6.25 (≈ 13.5 µM) | 1.56 (≈ 3.37 µM) | 6.25 (≈ 13.5 µM) | 6.25 (≈ 13.5 µM) | 6.25 (≈ 13.5 µM) | 6.25 (≈ 13.5 µM) |
| CC(=O)NC[C@H]1CN(c2ccc(N3CCNS3(=O)=O)c(F)c2)C(=O)O1 | 0.2 (≈ 0.537 µM) | 0.78 (≈ 2.09 µM) | 0.2 (≈ 0.537 µM) | 0.2 (≈ 0.537 µM) | 0.2 (≈ 0.537 µM) | 0.2 (≈ 0.537 µM) | 0.2 (≈ 0.537 µM) | 0.39 (≈ 1.05 µM) | 0.78 (≈ 2.09 µM) | 0.39 (≈ 1.05 µM) | 0.39 (≈ 1.05 µM) | 0.2 (≈ 0.537 µM) | 0.78 (≈ 2.09 µM) | 0.78 (≈ 2.09 µM) | 0.39 (≈ 1.05 µM) | 0.2 (≈ 0.537 µM) | 0.2 (≈ 0.537 µM) |
| CC(=O)NC[C@H]1CN(c2ccc(N3CCOS3(=O)=O)c(F)c2)C(=O)O1 | 3.12 (≈ 8.36 µM) | 1.56 (≈ 4.18 µM) | 1.56 (≈ 4.18 µM) | 3.12 (≈ 8.36 µM) | 1.56 (≈ 4.18 µM) | 1.56 (≈ 4.18 µM) | 0.39 (≈ 1.04 µM) | 1.56 (≈ 4.18 µM) | 3.12 (≈ 8.36 µM) | 1.56 (≈ 4.18 µM) | 1.56 (≈ 4.18 µM) | 0.78 (≈ 2.09 µM) | 3.12 (≈ 8.36 µM) | 3.12 (≈ 8.36 µM) | 3.12 (≈ 8.36 µM) | 3.12 (≈ 8.36 µM) | 1.56 (≈ 4.18 µM) |
| CC(=O)NC[C@H]1CN(c2ccc(N3CCN(C)S3(=O)=O)c(F)c2)C(=O)O1 | 3.12 (≈ 8.07 µM) | 6.25 (≈ 16.2 µM) | 3.12 (≈ 8.07 µM) | 6.25 (≈ 16.2 µM) | 3.12 (≈ 8.07 µM) | 0.78 (≈ 2.02 µM) | 1.56 (≈ 4.04 µM) | 3.12 (≈ 8.07 µM) | 3.12 (≈ 8.07 µM) | 3.12 (≈ 8.07 µM) | 6.25 (≈ 16.2 µM) | 1.56 (≈ 4.04 µM) | 3.12 (≈ 8.07 µM) | 3.12 (≈ 8.07 µM) | 3.12 (≈ 8.07 µM) | 3.12 (≈ 8.07 µM) | 3.12 (≈ 8.07 µM) |
| CCN1CCN(c2ccc(N3C[C@H](CNC(C)=O)OC3=O)cc2F)S1(=O)=O | 3.12 (≈ 7.79 µM) | 3.12 (≈ 7.79 µM) | 6.25 (≈ 15.6 µM) | 6.25 (≈ 15.6 µM) | 3.12 (≈ 7.79 µM) | 0.78 (≈ 1.95 µM) | 3.12 (≈ 7.79 µM) | 6.25 (≈ 15.6 µM) | 3.12 (≈ 7.79 µM) | 1.56 (≈ 3.9 µM) | 6.25 (≈ 15.6 µM) | 0.78 (≈ 1.95 µM) | 3.12 (≈ 7.79 µM) | 3.12 (≈ 7.79 µM) | 6.25 (≈ 15.6 µM) | 6.25 (≈ 15.6 µM) | 3.12 (≈ 7.79 µM) |
